Tested on: GAD67-, VGluT1-, ChAT-positive neurons and OX42 reactive microglia in the hippocampus
Experiment: Immunohistochemical analysis of GAD67, VGluT1, ChAT, OX42 in hippocampus (Experimental Example 1)
Type: in vivo, rat
Protocol: Immunostaining was carried out using antibodies against VGluT1 (diluted 1:500, Chemicon), ChAT (1:500, Chemicon), GFAP (1:1,000, Chemicon), tyrosine hydroxylase (TH, 1:500, Chemicon) and OX42 (CD11b/c, 1:250, Serotec) as primary antibodies instead of the anti-BrdU antibodies used in (4). The other process was the same as in (4), except that incubation was performed at 37° C. for 30 minutes in 2 N HCl.
In the immunohistochemical analysis, the number of the cells immnunostained against each antibody was counted from 5 or 6 hippocampal coronal sections. For each staining analysis, every fifth cryosections of the hippocampal region of brain tissues (AP: bregma −4.5 to −4.3 mm) were taken for immunostaining. The number of the immnunostained cells was represented as an average of number of cells in the hippocampal region of one brain slice.
The number of the VGluT1- and GAD-positive cells in the brain slice samples 1 week and 4 weeks after the administration of soyasaponin I was presented per microscopic field (×400-VGluT1, ×800-GAD67) and the number of the ChAT-positive cells was presented per each hippocampal region (10-12 confocal laser microscopic fields). 5-11 animals were used per group. Western blotted membranes were analyzed using the multi-gauge, bio-imaging program on LAS-4000 Mini (Fujifilm Life Science, Stamford, Conn., USA). Densitometeric analysis of the expression ratios of VGluT1/β-actin, GAD65/67/β-actin and ChAT/β-actin was normalized to the vehicle group.

[1] = ibotenic acid injected into entorhinal cortex, no soyasaponin I
[2] = memory-deficient model rats, soyasaponin I at 5, 10, 20 mg/kg oral

N[C@H](C(=O)O)c1cc(=O)[nH]o1 [IBO, Ibotenic acid]
ChAT-positive cells in the hippocampus relative to Sham [1]: 52.07 ± 7.38% | GAD67-positive cells in the hippocampus relative to Sham [1]: 43.02 ± 3.72% | VGluT1-positive cells in the hippocampus relative to Sham [1]: 72.44 ± 3.86% | Number of ChAT-positive cells in the hippocampus [2]: 7.30±1.32 cells | Number of GAD67-positive cells [2]: 3.81±0.63 cells per hippocampal slice
